How the values were obtained:
IRAK4 enzyme = target: T1, IRAK4 enzyme (Homo sapiens, UniProt Q9NWZ3); experiment: IRAK4 enzyme inhibition degree (bead-based kinase assay, peptide substrate BMKC-2, 100 μM ATP); assay type: biochemical; details: compound 1 μM
T1 sequence (Q9NWZ3 1-460): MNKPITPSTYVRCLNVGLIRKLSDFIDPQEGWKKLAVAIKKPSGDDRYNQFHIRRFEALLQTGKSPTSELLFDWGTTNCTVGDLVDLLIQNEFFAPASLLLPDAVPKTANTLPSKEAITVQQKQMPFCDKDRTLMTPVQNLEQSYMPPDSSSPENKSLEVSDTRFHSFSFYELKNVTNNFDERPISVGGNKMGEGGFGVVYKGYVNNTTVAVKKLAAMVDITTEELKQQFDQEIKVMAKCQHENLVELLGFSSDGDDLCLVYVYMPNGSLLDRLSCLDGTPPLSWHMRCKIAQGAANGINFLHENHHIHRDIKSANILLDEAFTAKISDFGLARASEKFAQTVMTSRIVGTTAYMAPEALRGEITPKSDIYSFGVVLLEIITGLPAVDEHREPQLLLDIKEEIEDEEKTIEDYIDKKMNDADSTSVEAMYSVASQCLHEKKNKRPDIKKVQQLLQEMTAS
In short: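 IRAK4 (0.4 ng/μl stock) preincubated 10 min with compound, then 6 μM BMKC-2 peptide with 100 μM ATP (mix concentrations) for 60 min at room temperature; EDTA stop. Phospho-Thr antibody with AlphaScreen donor/acceptor beads detected product; % inhibition versus controls, IC50 by non-linear regression.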

[1] = system: TNF-α secretion, peripheral blood mononuclear cells (PBMCs); experiment: Suppression of TNF-α secretion in LPS-treated PBMCs (ELISA); assay type: cell-based; details: PBMC, 100 ng/ml LPS, 24 hours, read-out: TNF-α, % inhibition degree
In short: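 PBMCs (1×10^5 cells/well for TNF-α, 2×10^5 for IFN-α) preincubated 30 min with compound, then stimulated with 100 ng/ml LPS for 24 h (TNF-α) or 500 nM ODN2216 for 72 h (IFN-α). Cytokines in supernatants quantified by sandwich ELISA with TMB, absorbance 450/570 nm.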

[2] = system: NF-κB promoter, THP1-Lucia™ NF-κB cell line; experiment: NF-κB promoter inhibition, THP1-Lucia NF-κB cell line; assay type: cell-based; details: 100 ng/ml LPS, 24 hours, read-out: NF-κB, % inhibition degree
In short: (§1)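 THP1-Lucia cells (NF-κB line 1×10^4/well, ISG line 2×10^4/well) preincubated with compound for 30 minutes. Stimulation then used 100 ng/ml LPS (NF-κB) or 1 μg/ml Poly(dA:dT)/LyoVec (ISG) for 24 hours. Secreted luciferase in supernatant measured by Quanti-luc luminescence.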

[3] = system: ISG promoter, THP1-Lucia™ ISG cell line; experiment: ISG promoter inhibition, THP1-Lucia ISG cell line; assay type: cell-based; details: 1 μg/ml Poly(dA:dT)/LyoVec, 24 hours, read-out: ISG, % inhibition degree
In short: as §1

[4] = system: TNF-α in serum, LPS-induced systemic inflammatory disease; experiment: Suppressive effects on LPS-induced systemic inflammatory disease in mice (serum TNF-α); assay type: in vivo, C57BL/6 mice; details: doses of 50 and 100 mg/kg, oral, 2 hours prior to LPS 15 mg/kg i.p.
Experimental: As experimental animals, 8-week-old C57BL/6 (20 to 23 g) mice were supplied from Orient Bio Co., Ltd. (Seongnam, Gyeonggi-do) and used. The mice were acclimatized for 2 weeks or more in an animal room of the Korea Research Institute of Chemical Technology, where temperature (22±1° C.) and humidity (50±10%) were automatically adjusted, and then used for experiments, and allowed to freely ingest water and feed. This animal experiment was performed with the approval of the Animal Care and Use Committee of the Korea Research Institute of Chemical Technology. A systemic inflammatory disease was induced by administering a dose of 15 mg/kg lipopolysaccharide (LPS, Sigma L2880) intraperitoneally to the mice. A test drug was suspended in a 10% Cremophor solution and administered orally 2 hours prior to LPS injection, the mice were anesthetized with isoflurane 1 hour after LPS administration, and blood was collected from the heart. Serum was obtained by centrifuging the collected blood at 13,000 rpm for 15 minutes, store at −20° C., and then taken if needed to measure the content of cytokine (TNF-α) in serum using an ELISA kit manufactured by BD Biosciences. […]

inhibition at 1 µM (IRAK4 enzyme): 100%
Compound: Fc1cncc(-c2ccc3[nH]c4ncnc(N[C@H]5CC[C@H](N6CCOCC6)CC5)c4c3c2)c1 [Compound 6aaf, 6-(5-fluoropyridin-3-yl)-N-(trans-4-morpholinocyclohexyl)-9H-pyrimido[4,5-b]indole-4-amine]
inhibition at 0.1 µM ([1]; 0.1 μM): 51% | inhibition at 1 µM ([1]; 1 μM): 124% | inhibition at 0.1 µM ([2]; 0.1 μM): 43% | inhibition at 1 µM ([2]; 1 μM): 82% | inhibition at 0.1 µM ([3]; 0.1 μM): 24% | inhibition at 1 µM ([3]; 1 μM): 83% | suppressive effect on systemic inflammation (serum TNF-α) compared to PF-06650833 [4]: better suppressive effect than PF-06650833

From US12378250B2, “Tricyclic compound as IRAK4 inhibitor” (KOREA RESEARCH INSTITUTE OF CHEMICAL TECHNOLOGY, priority 2018, dated 2025)
